Molecular target: T1, human plasmin (Homo sapiens, UniProt P00747)
T1 construct: precursors of plasmin, such as plasminogen
Assay: indirect enzymatic determination: release of pNA from chromogenic substrate S-2251 by plasmin in the presence of defibrotide
Type: biochemical
Method: 150 μl of each of the standard defibrotide solutions described above are taken and introduced into the wells of the microplates.
The plasmin solution is then prepared rapidly by adding, at 0° C., 3.8 ml of TRIS-HCl buffer to the test tube containing 0.2 ml of human plasmin solution. The whole is agitated gently until dissolution has occurred, and 50 μl are taken and introduced into the wells of the microplate, followed by 50 μl of S-2251 for each well.
The microplate, placed in the MRX TCII reader set at 37° C., is agitated for approximately 10 seconds; the absorbance readings are carried out at 405 nm, at the initial time t0 and subsequently every two minutes in the interval from 10 to 20 minutes, in accordance with the enzymatic kinetics program.
The microplate, placed in the MRX TCII reader set at 37° C., is agitated for approximately 10 seconds; the absorbance readings are taken at 405 nm, at the initial time t0 and subsequently every 5 minutes for a period from the 20th to the 50th minute, in accordance with the enzymatic kinetics program.
The absorbance values measured are then processed (Excel and Sigma Plot programs), tabulated and represented in a graph (regression lines).
In addition, considering the data reported in Table 1, 2 and 3, we have also calculated the μM/min of p-Nitroaniline released by plasmin acting on the chromogenic substrate in the presence of Defibrotide.
The “b” values reported in Tables 1, 2 and 3, namely the slopes of the kinetics curves, represent the ΔAbs/min×1000 (usually, just to avoid numbers with commas, the scale for the spectrophotometric readings in FIGS. 3, 4 and 5 was multiplied by 1000; as a consequence, the real spectrophotometric absorbance reading is obtained dividing “b” by 1,000).
Knowing from the literature, the Molar Extinction Coefficient for p-Nitroaniline (8,270 M^−1cm^−1, corresponding to 0.008270 Unit of Absorbance per μM of p-Nitroaniline) it follows that: 1μM p-Nitroaniline: 0.008270 (Absorbance)=X μM p-Nitroaniline: Spectrophotometric Reading (“b”/1000)
In this way we have calculated the micromoles of p-Nitroaniline released in the previous experiments, whose value are reported in table 4.

[1] = Mean±Standard Deviation of 5 replications, X = concentration of defibrotide (μg/ml)
[2] = Replication 2, X = concentration of defibrotide (μg/ml)
[3] = Replication 3, X = concentration of defibrotide (μg/ml)
[4] = Replication 4, X = concentration of defibrotide (μg/ml)
[5] = Replication 5, X = concentration of defibrotide (μg/ml)

T1 sequence (P00747 97-580 limits assumed): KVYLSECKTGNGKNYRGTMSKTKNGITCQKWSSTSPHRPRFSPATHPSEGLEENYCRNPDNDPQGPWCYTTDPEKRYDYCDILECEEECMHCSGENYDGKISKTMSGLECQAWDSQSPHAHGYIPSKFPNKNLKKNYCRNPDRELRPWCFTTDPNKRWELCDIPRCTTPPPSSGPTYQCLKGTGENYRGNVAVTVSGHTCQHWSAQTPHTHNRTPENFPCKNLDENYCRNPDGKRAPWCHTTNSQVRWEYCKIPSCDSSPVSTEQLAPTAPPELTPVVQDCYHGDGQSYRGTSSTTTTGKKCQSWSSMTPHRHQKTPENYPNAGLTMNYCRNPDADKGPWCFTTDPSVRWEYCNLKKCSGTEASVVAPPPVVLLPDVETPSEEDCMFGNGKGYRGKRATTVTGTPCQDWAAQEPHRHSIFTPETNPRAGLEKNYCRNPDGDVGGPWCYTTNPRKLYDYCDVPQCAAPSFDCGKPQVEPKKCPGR
T1 sequence (P00747 581-810 limits assumed): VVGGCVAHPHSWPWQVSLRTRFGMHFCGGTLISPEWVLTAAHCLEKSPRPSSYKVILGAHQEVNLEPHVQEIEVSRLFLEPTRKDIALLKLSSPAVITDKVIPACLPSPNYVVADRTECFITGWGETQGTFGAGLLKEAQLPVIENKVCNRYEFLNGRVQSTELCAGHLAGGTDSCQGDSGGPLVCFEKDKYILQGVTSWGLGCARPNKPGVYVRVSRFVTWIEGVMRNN

Substance: Defibrotide
- a of pNA(μM/min)=a+blog X [1]: 0.6908±0.0291 μM/min
- b of pNA(μM/min)=a+blog X [1]: 0.3140±0.0437
- slope b of regression μM/min p-Nitroaniline = a + b log X (Replication 1, X = concentration of defibrotide (μg/ml)): 0.3820
- intercept a of regression μM/min p-Nitroaniline = a + b log X (Replication 1, X = concentration of defibrotide (μg/ml), 37° C., 405 nm): 0.7317 μM/min
- intercept a of regression μM/min p-Nitroaniline = a + b log X [2]: 0.6625 μM/min
- slope b of regression μM/min p-Nitroaniline = a + b log X [2]: 0.2907
- intercept a of regression μM/min p-Nitroaniline = a + b log X [3]: 0.6708 μM/min
- slope b of regression μM/min p-Nitroaniline = a + b log X [3]: 0.2741
- intercept a of regression μM/min p-Nitroaniline = a + b log X [4]: 0.6792 μM/min
- slope b of regression μM/min p-Nitroaniline = a + b log X [4]: 0.2907
- intercept a of regression μM/min p-Nitroaniline = a + b log X [5]: 0.7100 μM/min
- slope b of regression μM/min p-Nitroaniline = a + b log X [5]: 0.3323
- effect on rate of release of compound X (pNA) by plasmin from its substrate (plasmin-evaluation tests with substrate A1-A2-A3-X): increases the rate of release of compound X proportionally to its concentration
